Values quoted from earlier work in patent US20110250260A1, “INHIBITION OF BRAIN ENZYMES INOLVED IN CEREBRAL AMYLOID ANGIOPATHY AND MACULAR DEGENERATION” (Loma Linda University Medical Center, priority 2006, published 2011).
Where a SMILES comes first, the peptide text is derived from it. The star is where a group is joined. Cbz = O=C(OCc1ccccc1)*; CH2F = FC*

What was measured:
[1] = system: heart failure in a murine model
[2] = system: liver function during hepatitis C virus infection; conditions: human trials
[3] = system: cell death after ischemia in multiple tissues; conditions: animal models
Heme oxidase = conditions: experimental brain hematomas

## Cc1c(C(=O)N[C@H](C(=O)NC(CC(=O)O)C(=O)CF)C(C)C)n(C)c2ccccc12 (stereo partly shown) [IDN-1965]
[1]; compared with vehicle-treated mice
  mortality: eliminate the 30% mortality
[1]; continuous infusion
  reduction of caspase 3-like activity: 90%
  reduction of terminal dUTP nick end-labeling-positive myocytes: 90%

## C[C@H](NC(=O)C(=O)Nc1ccccc1C(C)(C)C)C(=O)N[C@@H](CC(=O)O)C(=O)COc1c(F)c(F)cc(F)c1F [IDN-6556]
[2]
  preserving liver function: showing promise
  side-effects: without exhibiting serious side-effects

## COC(=O)C[C@H](NC(=O)[C@H](C)NC(=O)[C@@H](NC(=O)OCc1ccccc1)C(C)C)C(=O)CF [zVAD-FMK] (Cbz-Val-Ala-Asp(OMe)-CH2F)
[3]
  reducing cell death after ischemia: highly effective

## tin-mesoporphyrin
Heme oxidase
  effects to the brain of heme oxidase inhibition: beneficial effects to the brain
